Experimental data: US12247010B2, “Tubulin inhibitors” (LIN BIOSCIENCE PTY LTD., priority 2017, dated 2025)

System: U87MG cells
Assay: Cytotoxicity assay (cell viability, CellTiter 96 Aqueous MTS)
Assay type: cell-based
Conditions: Homo sapiens, U-87 MG, 72 h, 72 hours incubation, starting concentration 50 uM, 9 point half log dilution, average where tested repeatedly
In short: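 U87MG cells plated at 7×10^3 cells/well overnight, then treated 72 h with 9-point half-log dilutions from a 50 uM starting concentration. Viability measured with CellTiter 96 Aqueous MTS; IC50 calculated from viability.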

Compound | IC50
O=C(CCCc1ccc(-c2cnc3[nH]ccc3c2)cc1)Nc1cccnc1 [Compound 181, 4-(4-(1H-pyrrolo[2,3-b]pyridin-5-yl)phenyl)-N-(pyridin-3-yl)butanamide] | < 0.5 µM
O=C(CCCc1ccc(-c2cnc3ccccc3c2)cc1)Nc1cccnc1 [Compound 183, N-(pyridin-3-yl)-4-(4-(quinolin-3-yl)phenyl)butanamide] | 1 to 5 µM
COc1cccc(-c2ccc(CCCC(=O)Nc3cccnc3)cc2)c1F [Compound 184, 4-(2′-fluoro-3′-methoxy-[1,1′-biphenyl]-4-yl)-N-(pyridin-3-yl)butanamide] | < 0.5 µM
O=C(CCCc1cccc(-n2cccn2)c1)Nc1cccnc1 [Compound 185, 4-(3-(1H-pyrazol-1-yl)phenyl)-N-(pyridin-3-yl)butanamide] | > 5 µM
O=C(CCCc1ccc(Cc2ccccc2)cc1)Nc1cccnc1 [Compound 186, 4-(4-benzylphenyl)-N-(pyridin-3-yl)butanamide] | > 5 µM
O=C(CCCc1ccc(-c2ccc(C(F)(F)F)cc2F)cc1)Nc1cccnc1 [Compound 189, 4-(2′-fluoro-4′-(trifluoromethyl)-[1,1′-biphenyl]-4-yl)-N-(pyridin-3-yl)butanamide] | 1 to 5 µM
O=C(CCCc1ccc(-c2cc3cccnc3cc2F)cc1)Nc1cccnc1 [Compound 190, 4-(4-(7-fluoroquinolin-6-yl)phenyl)-N-(pyridin-3-yl)butanamide] | < 0.5 µM
Cc1nn(C)c2ccc(-c3ccc(CCCC(=O)Nc4cccnc4)cc3)cc12 [Compound 191, 4-(4-(1,3-dimethyl-1H-indazol-5-yl)phenyl)-N-(pyridin-3-yl)butanamide] | 1 to 5 µM
O=C(CCCc1ccc(-c2ccc3nccnc3c2)cc1)Nc1cccnc1 [Compound 192, N-(pyridin-3-yl)-4-(4-(quinoxalin-6-yl)phenyl)butanamide] | 1 to 5 µM
O=C(CCCc1ccc(-c2cnn(Cc3ccccc3)c2)cc1)Nc1cccnc1 [Compound 193, 4-(4-(1-benzyl-1H-pyrazol-4-yl)phenyl)-N-(pyridin-3-yl)butanamide] | > 5 µM
O=C(CCCc1ccc(-c2ccc3[nH]cnc3c2)cc1)Nc1cccnc1 [Compound 195, 4-(4-(1H-benzo[d]imidazol-5-yl)phenyl)-N-(pyridin-3-yl)butanamide] | 0.501 to 1 µM
O=C(CCCc1ccc(-c2ccc3c(c2)CCC(=O)N3)cc1)Nc1cccnc1 [Compound 196, 4-(4-(2-oxo-1,2,3,4-tetrahydroquinolin-6-yl)phenyl)-N-(pyridin-3-yl)butanamide] | < 0.5 µM
O=C(CCCc1ccc(-c2ccc3nccn3c2)cc1)Nc1cccnc1 [Compound 197, 4-(4-(imidazo[1,2-a]pyridin-6-yl)phenyl)-N-(pyridin-3-yl)butanamide] | > 5 µM
O=C(CCCc1ccc(-c2ccc(-n3cccn3)cc2)cc1)Nc1cccnc1 [Compound 198, 4-(4′-(1H-pyrazol-1-yl)-[1,1′-biphenyl]-4-yl)-N-(pyridin-3-yl)butanamide] | 0.501 to 1 µM
Cc1ccc2cc(-c3ccc(CCCC(=O)Nc4cccnc4)cc3)ccc2n1 [Compound 199, 4-(4-(2-methylquinolin-6-yl)phenyl)-N-(pyridin-3-yl)butanamide] | 0.501 to 1 µM
O=C(CCCc1ccc(-c2cc(C(=O)N3CCOCC3)ccc2F)cc1)Nc1cccnc1 [Compound 200, 4-(2′-fluoro-5′-(morpholine-4-carbonyl)-[1,1′-biphenyl]-4-yl)-N-(pyridin-3-yl)butanamide] | > 5 µM
O=C(CCCc1ccc(-c2ccncc2)cc1)Nc1cccnc1 [Compound 202, N-(pyridin-3-yl)-4-(4-(pyridin-4-yl)phenyl)butanamide] | > 5 µM
Cc1nn(C)cc1-c1ccc(CCCC(=O)Nc2cccnc2)cc1 [Compound 203, 4-(4-(1,3-dimethyl-1H-pyrazol-4-yl)phenyl)-N-(pyridin-3-yl)butanamide] | > 5 µM
O=C(CCCc1ccc(-c2nnco2)cc1)Nc1cccnc1 [Compound 204, 4-(4-(1,3,4-oxadiazol-2-yl)phenyl)-N-(pyridin-3-yl)butanamide] | 1 to 5 µM
O=C(CCCc1ccc(-c2cnc(N3CCOCC3)nc2)cc1)Nc1cccnc1 [Compound 205, 4-(4-(2-morpholinopyrimidin-5-yl)phenyl)-N-(pyridin-3-yl)butanamide] | > 5 µM
O=C(CCCc1ccc(-c2ccc3[nH]ncc3c2)cc1)Nc1cccnc1 [Compound 206, 4-(4-(1H-indazol-5-yl)phenyl)-N-(pyridin-3-yl)butanamide] | < 0.5 µM
O=C(CCCc1ccc(-c2ccc3[nH]c(=O)oc3c2)cc1)Nc1cccnc1 [Compound 208, 4-(4-(2-oxo-2,3-dihydrobenzo[d]floxazol-6-yl)phenyl)-N-(pyridin-3-yl)butanamide] | 1 to 5 µM
O=C(CCCc1ccc(-c2cc3cn[nH]c3cc2F)cc1)Nc1cccnc1 [Compound 209, 4-(4-(6-fluoro-1H-indazol-5-yl)phenyl)-N-(pyridin-3-yl)butanamide] | < 0.5 µM

Compound | IC50
O=C(CCCc1ccc(-c2cnc3[nH]ncc3c2)cc1)Nc1cccnc1 [Compound 210, 4-(4-(1H-pyrazolo[3,4-b]pyridin-5-yl)phenyl)-N-(pyridin-3-yl)butanamide] | < 0.5 µM
O=C(CCCc1ccc(-c2cnc3c(c2)CCC(=O)N3)cc1)Nc1cccnc1 [Compound 211, 4-(4-(7-oxo-5,6,7,8-tetrahydro-1,8-naphthyridin-3-yl)phenyl)-N-(pyridin-3-yl)butanamide] | 1 to 5 µM
O=C(CCCc1ccc(-c2ccc3[nH]ccc3c2)cc1)Nc1cccnc1 [Compound 213, 4-(4-(1H-indol-5-yl)phenyl)-N-(pyridin-3-yl)butanamide] | < 0.5 µM
Cc1nn(C)c(C)c1-c1ccc(CCCC(=O)Nc2cccnc2)cc1 [Compound 216, N-(pyridin-3-yl)-4-(4-(1,3,5-trimethyl-1H-pyrazol-4-yl)phenyl)butanamide] | > 5 µM
O=C(CCCc1ccc(-c2cscn2)cc1)Nc1cccnc1 [Compound 217, N-(pyridin-3-yl)-4-(4-(thiazol-4-yl)phenyl)butanamide] | > 5 µM
CCOc1cccc(-c2ccc(CCCC(=O)Nc3cccnc3)cc2)c1F [Compound 218, 4-(3′-ethoxy-2′-fluoro-[1,1′-biphenyl]-4-yl)-N-(pyridin-3-yl)butanamide] | < 0.5 µM
Cc1cccc(-c2ccc(CCCC(=O)Nc3cccnc3)cc2)c1F [Compound 219, 4-(2′-fluoro-3′-methyl-[1,1′-biphenyl]-4-yl)-N-(pyridin-3-yl)butanamide] | < 0.5 µM
O=C(CCCc1ccc(-c2cccc(C(F)(F)F)c2F)cc1)Nc1cccnc1 [Compound 220, 4-(2′-fluoro-3′-(trifluoromethyl)-[1,1′-biphenyl]-4-yl)-N-(pyridin-3-yl)butanamide] | < 0.5 µM
N#Cc1cccc(-c2ccc(CCCC(=O)Nc3cccnc3)cc2)c1F [Compound 221, 4-(3′-cyano-2′-fluoro-[1,1′-biphenyl]-4-yl)-N-(pyridin-3-yl)butanamide] | 1 to 5 µM
O=C(CCCc1ccc(-c2ccc3c(c2)CC(=O)N3)cc1)Nc1cccnc1 [Compound 222, 4-(4-(2-oxoindolin-5-yl)phenyl)-N-(pyridin-3-yl)butanamide] | < 0.5 µM
O=C(CCCc1ccc(-c2ccc3[nH]cnc(=O)c3c2)cc1)Nc1cccnc1 [Compound 223, 4-(4-(4-oxo-1,4-dihydroquinazolin-6-yl)phenyl)-N-(pyridin-3-yl)butanamide] | > 5 µM
O=C(CCCc1ccc(-c2ccc3c(c2)OCC(=O)N3)cc1)Nc1cccnc1 [Compound 224, 4-(4-(3-oxo-3,4-dihydro-2H-benzo[b][1,4]oxazin-7-triazoloyl)phenyl)-N-(pyridin-3-yl)butanamide] | < 0.5 µM
O=C(CCCc1ccc(-c2cccc(Cl)c2F)cc1)Nc1cccnc1 [Compound 225, 4-(3′-chloro-2′-fluoro-[1,1′-biphenyl]-4-yl)-N-(pyridin-3-yl)butanamide] | > 5 µM
Cc1cc(C(=O)NCCCc2ccc(-c3ccc4c(cnn4C)c3)cc2)no1 [Compound 227, 5-methyl-N-(3-(4-(1-methyl-1H-indazol-5-yl)phenyl)propyl)isoxazole-3-carboxamide] | < 0.5 µM
Cc1cc(C(=O)NCCCc2ccc(-c3ccc4[nH]ncc4c3C)cc2)n(C)n1 [Compound 228, 1,3-dimethyl-N-(3-(4-(4-methyl-1H-indazol-5-yl)phenyl)propyl)-1H-pyrazole-5-carboxamide] | < 0.5 µM
Cc1ccc(C(=O)NCCCc2ccc(-c3cnc4[nH]ccc4c3)cc2)cn1 [Compound 229, N-(3-(4-(1H-pyrrolo[2,3-b]pyridin-5-yl)phenyl)propyl)-6-methylnicotinamide] | < 0.5 µM
Cn1ncc2cc(-c3ccc(CCCNC(=O)c4cncnc4)cc3)ccc21 [Compound 231, N-(3-(4-(1-methyl-1H-indazol-5-yl)phenyl)propyl)pyrimidine-5-carboxamide] | < 0.5 µM
COc1cccc(-c2ccc(CCCNC(=O)c3ccc(C)nc3)cc2)c1F [Compound 234, N-(3-(2′-fluoro-3′-methoxy-[1,1′-biphenyl]-4-yl)propyl)-6-methylnicotinamide] | < 0.5 µM
Cc1cc(C(=O)NCCCc2ccc(-c3cnc4[nH]ccc4c3)cc2)no1 [Compound 235, N-(3-(4-(1H-pyrrolo[2,3-b]pyridin-5-yl)phenyl)propyl)-5-methylisoxazole-3-carboxamide] | < 0.5 µM
Cc1cc(C(=O)NCCCc2ccc(-c3ccc4c(cnn4C)c3)cc2)n(C)n1 [Compound 236, 1,3-dimethyl-N-(3-(4-(1-methyl-1H-indazol-5-yl)phenyl)propyl)-1H-pyrazole-5-carboxamide] | < 0.5 µM
Cc1ccc(C(=O)NCCCc2ccc(-c3ccc4ncccc4c3)cc2)cn1 [Compound 237, 6-methyl-N-(3-(4-(quinolin-6-yl)phenyl)propyl)nicotinamide] | < 0.5 µM
COc1cccc(-c2ccc(CCCNC(=O)c3cc(C)nn3C)cc2)c1F [Compound 238, N-(3-(2′-fluoro-3′-methoxy-[1,1′-biphenyl]-4-yl)propyl)-1,3-dimethyl-1H-pyrazole-5-carboxamide] | 0.501 to 1 µM
